# Patent US20180037574A1, “COMPOUND, COMPOSITION, ORGANIC ELECTROLUMINESCENCE ELEMENT, AND ELECTRONIC DEVICE” (IDEMITSU KOSAN CO., LTD., priority 2015, published 2018)
# Test: Dissolution of host and dopant materials in toluene solution (visual check)
# Format: physicochemical
# Conditions: 1.6-mass % toluene solution, host:dopant D-1 90:10 by mass, dissolved using ultrasonic waves, visually checked
# Description: The compound H-1 obtained in Synthesis Example 1 was used as a host material and the compound D-1 was used as a dopant material at a mixture ratio by mass of the compound H-1:the compound D-1 being 90:10 to prepare a 1.6-mass % toluene solution. The materials were dissolved using ultrasonic waves. […] The toluene solution was coated on the base substrate by spin coating to form a 50-nm thick film. After the film formation, an unnecessary portion was removed with toluene from the film. Subsequently, the film was heated and dried on a hot plate heated at 150 degrees C. to manufacture a coated laminate substrate on which an emitting layer was formed. It should be noted that all the operations for forming the emitting layer were conducted in a nitrogen-atmosphere glove box.
# In Comparative 1, manufacturing of an organic EL device was attempted in the same manner as in Example 1 except that a comparative compound H-a was used in place of the compound H-1 as the host material. However, the materials were not dissolved in the toluene solution but whitened to be unable to prepare a solution, so that an organic EL device was not manufactured.
smiles,measurement,value
c1ccc(-c2ccc(-c3nc(-n4c5ccccc5c5cc(-n6c7ccccc7c7ccccc76)ccc54)nc(-n4c5ccccc5c5cc(-n6c7ccccc7c7ccccc76)ccc54)n3)cc2)cc1 [H-a],solubility in toluene solution,not dissolved
